Columns and labels:
Conditions in all cases: incubation time: 72 h
DU-4475 [1] = assay: normalised viability (% of control), CellTiter-Blue; higher = more viable cells (about 100 = DMSO control)
Procedure: (§1)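 DSRT, CellTiter-Blue viability, 72 h incubation. Signal is normalised to DMSO and benzethonium chloride controls. Value is the normalised response at dose 3.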

MFM-223 [2] = assay: as above
Procedure: as §1

CAL-148 = assay: as above
Procedure: as §1

Hs578T [3] = assay: as above
Procedure: as §1

CAL-51 [4] = assay: as above
Procedure: as §1

CAL-120 = assay: as above
Procedure: as §1

MDA-MB-436 = assay: as above
Procedure: as §1

HCC1937 = assay: as above
Procedure: as §1

CAL-85-1 = assay: as above
Procedure: as §1

MDA-MB-453 = assay: as above
Procedure: as §1

BT-549 [5] = assay: as above
Procedure: as §1

SK-BR-3 [6] = assay: as above
Procedure: as §1

MDA-MB-231 [7] = assay: as above
Procedure: as §1

HCC1599 [8] = assay: as above
Procedure: as §1

MDA-MB-468 = assay: as above
Procedure: as §1

BT-474 = assay: as above
Procedure: as §1

HDQ-P1 = assay: as above
Procedure: as §1

HCC1143 = assay: as above
Procedure: as §1

MFM-223 [9] = assay: drug sensitivity score (DSS), CellTiter-Blue viability (DSS (AUC-based score)); higher = stronger viability inhibition; extreme values may be limits of the assay
How it was run: (§2)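 A 72 h incubation followed seeding of breast cancer cell lines (20 µl suspension) into 384-well plates holding compound in a 5- or 9-concentration series. CellTiter-Blue, 2.5 µl per well, was incubated 2 h at 37 °C, and fluorescence was measured at 560/590 nm. Normalisation on every plate used 0.1 % DMSO and a positive kill control. From the fitted dose-response curve, the area under the curve was taken as the drug sensitivity score.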

BT-549 [10] = assay: as above
How it was run: as §2

DU-4475 [11] = assay: normalised viability (% of control), CellTiter-Blue; higher = more viable cells (about 100 = DMSO control); remark: listed apart in the source
How it was run: (§3)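 384-well plates were pre-loaded with compound in 5 µl medium before 20 µl of breast cancer cell suspension was seeded. Following 72 h incubation, 2.5 µl CellTiter-Blue reagent was added for 2 h at 37 °C. Fluorescence was read at 560/590 nm and plates were normalised to vehicle (100) and a positive kill control (0), checked by Z'-factor. Normalised viability is reported at a single listed concentration of the series.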

MFM-223 [12] = assay: as above; remark: listed apart in the source
How it was run: as §3

Hs578T [13] = assay: as above; remark: listed apart in the source
How it was run: as §3

CAL-51 [14] = assay: as above; remark: listed apart in the source
How it was run: as §3

SK-BR-3 [15] = assay: as above; remark: listed apart in the source
How it was run: as §3

MDA-MB-231 [16] = assay: as above; remark: listed apart in the source
How it was run: as §3

HCC1599 [17] = assay: as above; remark: listed apart in the source
How it was run: as §3

O=NN(CCCl)C(=O)NC1CCCCC1 [Lomustine]
Conditions	normalised viability [%]
BT-474, 100 nM	111
BT-549 [5], 100 nM	114
CAL-51 [4], 10 nM	115
CAL-51 [14], 3 nM	110
CAL-51 [14], 30 nM	109
CAL-51 [14], 100 nM	110
CAL-85-1, 10 nM	93.8
CAL-120, 100 nM	97
CAL-148, 10 nM	93.9
DU-4475 [1], 10 nM	109
DU-4475 [11], 3 nM	117
DU-4475 [11], 30 nM	98.7
DU-4475 [11], 100 nM	88.2
HCC1143, 100 nM	93.2
HCC1599 [8], 100 nM	101
HCC1599 [17], 10 nM	108
HCC1599 [17], 1000 nM	81.4
HCC1599 [17], 10000 nM	117
HCC1937, 100 nM	87.3
HDQ-P1, 10 nM	113
Hs578T [3], 100 nM	94.6
Hs578T [13], 10 nM	105
Hs578T [13], 1000 nM	98.1
Hs578T [13], 10000 nM	98.7
MDA-MB-231 [7], 100 nM	100
MDA-MB-231 [16], 10 nM	110
MDA-MB-231 [16], 1000 nM	100
MDA-MB-231 [16], 10000 nM	95.9
MDA-MB-436, 100 nM	102
MDA-MB-453, 10 nM	95.5
MDA-MB-468, 100 nM	101
MFM-223 [2], 100 nM	89.5
MFM-223 [12], 10 nM	84.7
MFM-223 [12], 1000 nM	87.9
MFM-223 [12], 10000 nM	54.7
SK-BR-3 [6], 100 nM	97.5
SK-BR-3 [15], 10 nM	97.3
SK-BR-3 [15], 1000 nM	125
SK-BR-3 [15], 10000 nM	96

Conditions	drug sensitivity score
BT-549 [10]	0
MFM-223 [9]	0

COc1cc2c(N3CCN(C(=O)Nc4ccc(OC(C)C)cc4)CC3)ncnc2cc1OCCCN1CCCCC1 [Tandutinib]
Conditions	normalised viability [%]
BT-474, 10 nM	123
BT-549 [5], 10 nM	106
CAL-51 [4], 1 nM	109
CAL-51 [14], 0.3 nM	110
CAL-51 [14], 3 nM	101
CAL-51 [14], 10 nM	94.2
CAL-85-1, 1 nM	104
CAL-120, 10 nM	110
CAL-148, 1 nM	98.1
DU-4475 [1], 1 nM	107
DU-4475 [11], 0.3 nM	107
DU-4475 [11], 3 nM	92.9
DU-4475 [11], 10 nM	98.1
HCC1143, 10 nM	125
HCC1599 [8], 10 nM	101
HCC1599 [17], 1 nM	99.1
HCC1599 [17], 100 nM	121
HCC1599 [17], 1000 nM	103
HCC1937, 10 nM	98.4
HDQ-P1, 1 nM	130
Hs578T [3], 10 nM	94.5
Hs578T [13], 1 nM	115
Hs578T [13], 100 nM	116
Hs578T [13], 1000 nM	96.2
MDA-MB-231 [7], 10 nM	108
MDA-MB-231 [16], 1 nM	107
MDA-MB-231 [16], 100 nM	108
MDA-MB-231 [16], 1000 nM	122
MDA-MB-436, 10 nM	102
MDA-MB-453, 1 nM	110
MDA-MB-468, 10 nM	108
MFM-223 [2], 10 nM	102
MFM-223 [12], 1 nM	104
MFM-223 [12], 100 nM	98
MFM-223 [12], 1000 nM	113
SK-BR-3 [6], 10 nM	84.3
SK-BR-3 [15], 1 nM	111
SK-BR-3 [15], 100 nM	111
SK-BR-3 [15], 1000 nM	114

Conditions	drug sensitivity score
BT-549 [10]	0
MFM-223 [9]	0
